Measurements: PMC8395767, “Worsening of the Toxic Effects of (±)Cis-4,4′-DMAR Following Its Co-Administration with (±)Trans-4,4′-DMAR: Neuro-Behavioural, Physiological, Immunohistochemical and Metabolic Studies in Mice” (International Journal of Molecular Sciences, 2021)

Experiments:
NOX-2 = assay: Immunohistochemistry, frontal cortex: NOX-2; type: in vivo, mice; settings: vs control
Source text: Following the acute death or the sacrifice of the animals (after 5-h observation period by dislocation of the spine), brains were taken. These were fixed in 4% buffered formalin and then sampled and incorporated into the paraffin (Leica ASP300 processor, Histoline TEC2900 incorporator; Leica Microsystems Srl, Buccinasco, Milano, Italy). Subsequently, the cut (performed with the Leica HistoCore autocut microtome; Leica Microsystems Srl, Buccinasco, Milano, Italy) was designed to create sections with a thickness of 5 µm for each sample.
On 5-µm-thick paraffined […] sections, we evaluated the expression of a panel of markers: heat shock proteins (HSP27, HSP70, HSP90), SMAC/DIABLO, NF-kB, iNOS, NOX-2, NT, 8-OHDG.
We used a detection system composed of a biotinylated secondary antibody and HRP-conjugated streptavidin (4plus HRP Universal Detection, Biocare Medical). […] In the pictures (sections of the frontal cortex; Figure 3, Figure 4 and Figure 5) to evaluate the variation in the expression of markers (Smac, NOX2, iNOS, 8-OHdG, NT, HSP27, HSP70, HSP90) following treatments, the change in intensity of brown colour (staining of the immunohistochemical technique) in the control and treated tissue was measured. Quantification of Smac, NOX2, iNOS, 8-OHdG, NT, HSP27, HSP70 and HSP90 positive-stained areas was performed by the ImageJ software (imagej.nih.gov/ij/ Accessed date 12 May 2020). […]

mice = assay: Sweating and salivation (observation, present or not); type: in vivo; settings: n=6 mice
Method: The effects of (±)cis-4,4′-DMAR, (±)trans-4,4′-DMAR and their co-administration were investigated by a protocol widely used in studies of “safety pharmacology” for the preclinical characterization of new molecules in rodents. This protocol includes a series of observational behavioural tests carried out in a consecutive manner that monitor the animal responses up to 5 h after compound injections. In the present study, we reported the observation of physiological (sweating, salivation, core temperature) and neuro-behavioural (detection of psychomotor agitation, spontaneous and stimulated aggressiveness, convulsions) changes occurring in mice after injection of (±)cis-4,4′-DMAR, (±)trans-4,4′-DMAR and their co-administration. Before pharmacological treatment the mouse was placed on a square plate (30 cm× 30 cm) raised from the ground (20 cm) and left free to move on the plate for 10 min (habituation period). The animal was then injected with the vehicle, substances alone ((±)cis-4,4′-DMAR or (±)trans-4,4′-DMAR) or in cis + trans co-administration and placed on the plate. From this moment, the recording time of the physiological and neuro-behavioural responses started, and these were detected in 5-min sessions.
After the first 5 min, the animal was removed from the plate; the body core temperature was then measured, and the aggression tests were performed. The 5-min observation period was repeated at 15–30–60–90–120–180–240–300. Psychomotor agitation in the mouse was not simply related to an increase in spontaneous locomotion itself, but by an “unusual hyperactivity” which was characterised by rapid and sudden horizontal displacements in all directions, sustained turning behaviour, involuntary falls from the high plate during the evaluation of the tests, stereotyped movements and rearing activity. Mouse sweating and salivation were reported only if present or not. The core temperature was determined using a probe (1 mm diameter) that was gently inserted after lubrication with liquid Vaseline into the rectum of the mouse (to about 2 cm) and left in position until the temperature stabilised (about 10 s). The probe was connected to a digital thermometer. Spontaneous aggressive response was measured based on the number of times a mouse bit a grey cloth put in front of its snout. During the test, each mouse was free to move within the cage. In the case of stimulated aggressiveness, each mouse was manually restrained and held in a supine position following which an object was brought near the mouth. For both spontaneous and stimulated aggressive behaviour tests, a grey cloth was placed in front of the nose of each mouse 10 consecutive times (score 0/10 not aggressive, score 10/10 very aggressive). Convulsions were defined as a loss of righting reflexes for at least 5 s, combined with the presence of body tremors and clonic or tonic limb movements. Deaths caused by 4-4’-DMAR injection occurring during the observation period (5 h) were also reported as frequency (%) and time of death (min). Experiments were conducted inside the LARP (Centralised Preclinical Research Laboratory, University of Ferrara, Ferrara, Italy) in a thermo-stated (temperature 20–22 °C, humidity about 45–55%) and light controlled (about 150 lux) room, in which there was a background noise of about 40 ± 4 dB. The experiments, conducted in blind by trained observers working together in pairs, were videotaped and eventually analysed off-line by a different trained operator. The experiments were performed between 8:30 a.m. and 2:00 p.m.
Sweating and salivation were expressed as frequency (e.g., % of animals that developed symptoms); psychomotor agitation was expressed as frequency (% of animals) and duration (total time in mins). Core temperature values were expressed as the difference between control temperature (before injection) and temperature following drug administration (Δ°C). […]

[1] = 30 mg/kg i.p., listed as (±)cis-4,4′-DMAR

Compound: Cc1ccc(C2OC(N)=NC2C)cc1 (stereo not drawn) [cis-4,4’-DMAR, 4-methyl-5-(4-methylphenyl)-4,5-dihydrooxazol-2-amine]
- Immunoreactivity of NOX-2 in the frontal cortex (NOX-2; 60 mg/kg): did not affect
- Immunoreactivity of NOX-2 in the frontal cortex (NOX-2; 10 and 30 mg/kg): reduced
- Salivation Frequency % (n° of mice) (mice; 30 mg/kg i.p.): 100% (6)
- Sweating Frequency % (n° of mice) (mice; 30 mg/kg i.p.): 100% (6)
- Salivation Frequency % (n° of mice) (mice; [1]): All animals
- Sweating Frequency % (n° of mice) (mice; [1]): All animals
- Salivation Frequency % (n° of mice) (mice; 60 mg/kg i.p.): 50% (3)
- Sweating Frequency % (n° of mice) (mice; 60 mg/kg i.p.): 100% (6)
- Sweating Frequency % (n° of mice) (mice; 60 mg/kg i.p., listed as (±)cis-4,4′-DMAR): 50%
